Measurements reported in patent US9045505B2, “Nitric oxide donors” (University of Otago, priority 2006, dated 2015).

Tested on: Jurkat cells
Assay: Respiration of Jurkat cells (O2 electrode)
Format: cell-based
Settings: 5 μM; for effect on respiration by Jurkat cells: 37° C.
Description: FIG. 10 is a series of traces and graphs showing the effect of MitoSNAP on respiration in cells. (a-d) Jurkat cells (55×10^6 cells) were incubated in PBS supplemented with 25 mM Hepes pH 7.2 (NaOH), 1 mM sodium pyruvate, 10 μM neocuproine and 100 μM DTPA in the stirred 2.5 ml chamber of an oxygen electrode at 37° C. with 5 μM MitoSNAP (a), MitoNAP (b), SNAP (c) or MitoSNAP and FCCP (500 nM) (d). Where indicated 5 μM OxyHb was added. Traces show typical experiments that were repeated at least three times. Sections of the 02 electrode trace where OxyHb was added for (a) and (b) have been expanded 4-fold in the vertical dimension to facilitate inspection. In all traces the dashed line indicates anaerobiosis. (e) Effect of MitoSNAP on O2 bioavailability in hypoxia. HeLa cells were incubated at 1% O2 concentration with 5% CO2 and the balance N2 for […] before the indicated treatments. Cellular pO2 values, measured by fluorescence quenching oximetry and expressed as mean±sd, are shown. (**p<0.001 compared to hypoxia alone and to MitoNAP treatments by ANOVA).
Cell culture. Cells were grown in medium supplemented with 10% fetal calf serum (FCS), penicillin (100 U.ml^−1) and streptomycin (100 μg.ml^−1) at 37° C. in a humidified atmosphere of 95% air/5% CO2. Jurkat cells were cultured in Roswell park memorial institute (RPMI) 1640 medium supplemented with 2 mM Glutamax and 25 mM Hepes. HeLa cells were grown in minimum essential eagle medium (MEM) containing 2 mM glutamine and non-essential amino acids and were grown to 100% confluence prior to use. […]
To evaluate the selective uptake of MitoSNAP by mitochondria within cells, the effect of MitoSNAP on respiration by Jurkat cells, a T lymphocyte cell line that grows in suspension, was measured using an O2 electrode (FIG. 10). […] Then the effects of a further 30 min incubation with MitoSNAP, MitoNAP or the mitochondrial inhibitor myxathiazol on the steady-state extracellular pO2 was assessed by fluorescence quenching oximetry (FIG. 10e).

| SMILES | effect on respiration by Jurkat cells | time for which a low O2 concentration was maintained (low O2 concentrations) |
| --- | --- | --- |
| CC(=O)NC(C(=O)O)C(C)(C)SN=O (racemic) [SNAP, S-nitroso-N-acetyl-DL-penicillamine, reference compound] | had no effect on respiration |  |
| CC(=O)NC(C(=O)NCCCCC[P+](c1ccccc1)(c1ccccc1)c1ccccc1)C(C)(C)SN=O.CS(=O)(=O)[O-] (stereo not drawn) [MitoSNAP, [5-(2-acetylamino-3-methyl-3-nitrosothio-butyrylamino)-penty1]-triphenylphosphonium methanesulfonate] | respiration rate decreased and approached zero | at least 30 min |
